Common to all, as to test: growth of human tumour cells (NCI), 48 h
Experiment [1] has as its system SN12C renal.
The subject of experiment [2] is SF-295 CNS.
Experiment [3] concerns IGROV1 ovarian.
The test system of experiment [4] is MDA-N.
Experiment [5] concerns LOX IMVI melanoma.
Experiment [6] concerns OVCAR-5 ovarian.
Experiment [7] has as its system HCT-116 colon.
Experiment [8] concerns NCI-H522 lung.
For experiment [9], the system named is 786-0 renal.
The subject of experiment [10] is RXF 393 renal.
The subject of experiment [11] is DU-145 prostate.
Experiment [12] relates to U251 CNS.
The test system of experiment [13] is A549 NSCLC.
Experiment [14] deals with MDA-MB-231 breast.
Experiment [15] concerns OVCAR-8 ovarian.
The test system of experiment [16] is PC-3 prostate.
The test system of experiment [17] is UACC-257 melanoma.
In experiment [18] the test system is COLO 205 colon.
For experiment [19], the system named is DLD-1 colon.
The test system of experiment [20] is SK-MEL-2 melanoma.

Consider two compounds from PubChem BioAssay (NCI).

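Five compound concentrations were applied to cells in 96-well plates for 48 hours; endpoints were derived by simple linear interpolation of the resulting dose-response curve. TGI denotes the concentration required for complete inhibition of growth.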

As to `CC(/C=C/C=C\C=C\C=C(/C)C(=O)NC(C)CO)=C\C(C)C(O)/C(C)=C/C(C)CCc1ccccc1` (centres undefined), the TGI in experiment [1] is 26.4 µM; in experiment [2] it was 13.4 µM; in [3], 20.1 µM; in [4] it was 31.5 µM; in experiment [5] it was 16.5 µM; in experiment [6] it was 31 µM. The TGI in experiment [7] was 19.4 µM; in experiment [8], 17.6 µM; in [9], 26.4 µM; in [10], 26.6 µM; in [11] it was greater than 100 µM; in experiment [12], 37.9 µM. The TGI in experiment [13] is greater than 100 µM; in experiment [14], 45.2 µM; in [15] it was 25 µM; in experiment [16] it was 25.2 µM; in experiment [17] it was 12.3 µM; in [18], 26.8 µM. In addition, the TGI in experiment [19] was found to be 31.6 µM; in experiment [20] it was 29.6 µM.
Regarding `C/C(=N\N)C(CN1CCCCC1)C(c1ccccc1)c1c(O)c2ccccc2oc1=O` (centres undefined), the TGI in experiment [1] was greater than 100 µM; in experiment [2], greater than 100 µM; in experiment [3], greater than 100 µM; in experiment [5], greater than 31.6 µM; in experiment [6], greater than 100 µM; in experiment [7] it was greater than 100 µM. Further, the TGI in [8], in experiment [9], in [10], in experiment [11], in experiment [12] and in experiment [13] was greater than 100 µM in each case. Besides, the TGI in [14], in experiment [15], in experiment [16], in experiment [17], in [18] and in experiment [19] was greater than 100 µM throughout. Further, the TGI in experiment [20] was greater than 100 µM.
